Measurements: patent EP2871962B1, “WOOD PROTECTION AGAINST MICROORGANISMS BY LACCASE-CATALYSED IODINATION” (EMPA Eidgenössische Materialprüfungs- und Forschungsanstalt, priority 2012, dated 2013)
Where “and” joins values, the source holds several entries; their conditions need not be identical. Equal entries are not always repeated.

Tests used:
[1] = tested on: E. coli; assay: Biotests 1: stamping test of treated, leached wood on agar; format: cell-based, Escherichia coli (ATCC 11229); settings: wood batch 1 exposed to leaching; 18h contact; mean of grades 0-4 ±SE, n = 3; Mediator = ABTS (10 µM)
Protocol: (§1) Wood specimens (batch 1: 10 x 10 x 5 mm, length x width x height used in the biotests 1 and batch 2: 20 x 15 x 10 mm used in the biotests 2), free of defects, were extracted longitudinally from boards of Norway spruce trees grown in Switzerland, in order to minimize the influence of natural variability. All specimens were conditioned at 23C°(±1°C) and 50% (±5%) relative humidity (RH) until they reached an equilibrium moisture content of approximately 8-10%. Prior to the wood treatment the specimens were sterilized by autoclaving for 20min at 121°C(±1°C). […]
(§2) The evaluation of the antimicrobial activity against the bacteria E. coli and S. aureus and the yeast S. cerevisiae of the iodinated and polymerised wood was performed in biotests 1. […] Growth on agar plates was visually determined after incubation for 20-28h at the optimal temperature, giving the following growth values: 0 = no growth; 1 = weak growth; 2 = intermediate growth; 3 = strong growth and 4 = stamping area completely overgrown.

[2] = tested on: S. aureus; assay: as above; format: cell-based, Staphylococcus aureus (ATCC 6583); settings: wood batch 1 exposed to leaching; 18h contact; mean of grades 0-4 ±SE, n = 3; Mediator = ABTS (10 µM)
Protocol: as §1, §2

[3] = tested on: S. cerevisiae; assay: as above; format: cell-based, Saccharomyces cerevisiae A.C. van Wijk (DSM 70449); settings: wood batch 1 exposed to leaching; 18h contact; mean of grades 0-4 ±SE, n = 3; Mediator = ABTS (10 µM)
Protocol: as §1, §2

[4] = tested on: A. pullulans, C. picea, C. herbarum and D. pinicola; assay: Biotests 2: blue stain test of treated wood (EN 152-2, modified); format: cell-based; settings: 6 weeks of incubation, mean of stain categories 0-5 ±SE, n = 6, Mediator = ACS (50 µM); for Blue stain discoloration, Leached: wood batch 2, leached (EN 84)
Protocol: (§3) Wood specimens (batch 1: 10 x 10 x 5 mm, length x width x height used in the biotests 1 and batch 2: 20 x 15 x 10 mm used in the biotests 2), free of defects, were extracted longitudinally from boards of Norway spruce trees grown in Switzerland, in order to minimize the influence of natural variability. All specimens were conditioned at 23C°(±1°C) and 50% (±5%) relative humidity (RH) until they reached an equilibrium moisture content of approximately 8-10%. Prior to the wood treatment the specimens were sterilized by autoclaving for 20min at 121°C(±1°C).
The enzymatic wood iodination and polymerisation were carried out by dipping three wood specimens of batch 1 in 30ml or 12 wood specimens of batch 2 in 200ml reaction solution (pH 4-6) containing one of the phenolic compounds (4mM), or potassium iodide (1 or 50mM) in the presence of laccase ([…]) for 18h at room temperature. Furthermore, to test the suitability of HBA (5mM) as mediator some additional experiments were performed. The chemical preservative VP 7/ 260a containing IPBC and propiconazole as active agents was used as a benchmark with a final concentration of 5% (v/v). The wood specimens were treated and used in the biological tests, with the following modifications: • Control = Wood treated with buffer • L = Wood treated with laccase alone • L-M = Wood treated with laccase and mediator • Iso = Wood treated with isoeugenol • Iso-L = Wood treated with isoeugenol and laccase • Iso-L-M = Wood treated with isoeugenol, laccase and mediator • Thy = Wood treated with thymol • Thy-L = Wood treated with thymol and laccase • Thy-L-M = Wood treated with thymol and laccase and mediator • Ix = Wood treated with 1 or 50mM iodide (x = concentration of iodide) • Ix-L = Wood treated with 1 or 50mM iodide and laccase • Ix-L-M = Wood treated with 1 or 50mM iodide, laccase and mediator • VP7 = Wood treated with VP 7/ 260a (IPBC and propiconazole)
After the reaction all wood specimens of batch 1 had undergone a leaching procedure comprising five cycles of incubation in ddH2O (liquid volume min. 10 times the specimen volume, 100rpm, room temperature, 24h) and water exchange. Half of the wood specimens of batch 2 were exposed to leaching for two weeks including nine steps of water changing according to EN 84 (29), the other half was used without leaching in biotests.
The resistance of the treated wood against blue stain and wood decay fungi was determined in biotests 2 according to the European standards EN 152-2 (30) and EN 113 (31) with slight modifications. The EN 152 is a classical test for blue staining, originally intended to determine the effectiveness of a preservative treatment against blue stain in service. The treated wood samples were dipped into a spore suspension of A. pullulans, C. picea, C. herbarum and D. pinicola (cfu: > 10^5) and placed horizontally in a Kolle flask containing vermiculite (18g) which was inoculated additionally with 40ml of the spore suspension. The incubated specimens were stored in an incubation room at 22°C and 70% RH (6 weeks). After incubation the surface was evaluated by classifying the percentage of blue-stain discolouration from 0 to 5 according to Thwaites et al. (32) (Table 1). Table 1: Determination of the blue stain discoloration

[5] = tested on: O. placenta; assay: Biotests 2: mini-wood block decay test (comparable with EN 113), mass loss; format: cell-based, Oligoporus placenta; settings: wood batch 2, non-leached and leached, 12 weeks incubation; numbers only in Figure 2
Protocol: as §3
(§4) The enzymatic wood iodination and polymerisation were carried out by dipping three wood specimens of batch 1 in 30ml or 12 wood specimens of batch 2 in 200ml reaction solution (pH 4-6) containing one of the phenolic compounds (4mM), or potassium iodide (1 or 50mM) in the presence of laccase (10U ml^-1) and either 10µM ABTS for batch 1 or 100µM ACS for batch 2 under shaking (100rpm) for 18h at room temperature. […]
(§5) The treated wood was aseptically added to fully colonised Petri dishes (135mm diameter, 2% malt extract agar (MEA)) by O. placenta and T. versicolor respectively and incubated at 22C° and 70% RH. The ability of the wood-decay fungi to degrade the wood was determined gravimetrically after incubation periods of 6 and 12 weeks and expressed as mass loss (%) according to EN 113 (31): Mass loss(%) = (m0 −m1)/(m0)⋅100 [formula] […]

[6] = tested on: T. versicolor; assay: as above; format: cell-based, Trametes versicolor; settings: wood batch 2, non-leached and leached, 12 weeks incubation; numbers only in Figure 2
Protocol: as §3, §4, §5

[7] = tested on: A. alternata; assay: Growth inhibition on supplemented malt extract agar plates (Example 1); format: cell-based; settings: 2% MEA; phenolic derivatives 4mM, VP 7/ 260a 5% (v/v); without wood; ±SE, n = 3
[8] = tested on: D. pinicola; assay: as above; format: cell-based, Discula pinicola; settings: 2% MEA; phenolic derivatives 4mM, VP 7/ 260a 5% (v/v); without wood; ±SE, n = 3
Protocol: (§6) In addition to the mentioned biotests 2 the antimicrobial activity of the reaction derivatives without wood was evaluated on agar plates (5), excluding the laccase-catalysed iodine solution. It was assumed that the iodine molecules would react with starch from malt to form polyiodide chains, which would prevent the antimicrobial effect (33). The laccase catalysis of the phenols was performed under shaking for 18h at room temperature as described above and the phenolic derivatives were added to 2% MEA after autoclaving to a final concentration of 4mM. The fungicide VP 7/ 260a were added to a concentration of 5% (v/v). The supplemented Petri dishes were inoculated in the centre with a mycelium agar disc (5mm diameter) taken from the sub-margin of 14 day old cultures of the ascomycetes A. pullulans and D. pinicola and the basidiomycetes O. placenta and T. versicolor. The fungal growth was estimated by measuring the colony diameter and the growth inhibition was expressed as % of reference grown on non-supplemented malt agar.

[9] = tested on: O. placenta; assay: as above; format: cell-based, Oligoporus placenta; settings: 2% MEA; phenolic derivatives 4mM, VP 7/ 260a 5% (v/v); without wood; ±SE, n = 3
Protocol: as §6

[10] = tested on: T. versicolor; assay: as above; format: cell-based, Trametes versicolor; settings: 2% MEA; phenolic derivatives 4mM, VP 7/ 260a 5% (v/v); without wood; ±SE, n = 3
Protocol: as §6

SMILES	Growth values after stamping, E. coli [1]	Growth values after stamping, S. aureus [2]	Growth values after stamping, S. cerevisiae [3]	Blue stain discoloration, Leached [4]	Blue stain discoloration, Non-leached ([4]; wood batch 2, non-leached)	mass loss of wood caused by O. placenta (result in words) [5]	mass loss of wood caused by T. versicolor (result in words) [6]	Growth inhibition [%] on agar plate compared to control, A. alternata [7] [%]	Growth inhibition [%] on agar plate compared to control, D. pinicola [8] [%]	Growth inhibition [%] on agar plate compared to control, O. placenta [9] [%]	Growth inhibition [%] on agar plate compared to control, T. versicolor [10] [%]
[I-].[K+] [I50, potassium iodide]	4.0 ±0.0	3.0 ±0.6	2.7 ±0.3	3.3 ±0.3	0.8 ±0.4						
CC=Cc1ccc(O)c(OC)c1 [Iso, isoeugenol]	4.0 and 4.0 ±0.0			3.4 and 3.4 ±0.5		minor effect	minor effect	100 ±0.0	100 ±0.0	100 ±0.0	100 ±0.0
